EC50 data for 29 compounds are collected here from patent US8222414B2, “Indole compounds as an inhibitor of cellular necrosis” (LG Life Sciences Ltd., priority 2007, dated 2012).

Where only a bound is given, the exact number is not on record here.

The test system of the first test is primary hepatocytes isolated from rats. Nature of the test: Cell protective effects against doxorubicin in hepatocytes (WST-1 cell viability). Format: cell-based. Particulars: Hepatocyte; primary rat hepatocytes pretreated with compound for 30 min, then doxorubicin; viability by WST-1 after 24-48 h. Here is the method: Various endogenous/exogenous attacks on the cells trigger the mechanisms of cell death which is broadly classified into two types, i.e. apoptosis or necrosis. Using these cell death mechanisms, in the present experimental example, primacy hepatocytes isolated from rats were treated with drugs which were clinically shown to result in serious side-effects of hepatocyte toxicity or various chemicals which derive cell death, and the compounds synthesized in the Examples were estimated for their hepatocyte protective effects, after 24-48 h. The substances used to derive hepatocyte death include CCl4, ActD, H2O2, doxorubicin, anti-Fas Ab/Actinomycin D, acetaminophen, EtOH, CdCl2, palmitate, stearate, cyclophosphamide, terfenadine, diclofenac, simvastatin, and adefovir. Primary hepatocytes were isolated using the method of Seglen P O (Experimental Cell Research 74 (1972) pp 450-454). Briefly, hepatocytes were isolated according to the two-step collagenase perfusion method, and dead cells were removed by low speed (500 rpm) centrifugation for 10 min using percoll gradient (Kreamer B L etc, In Vitro Cellular & Developmental Biology 22 (1986) pp 201-211). During this step, the viability of cells was maintained 90% or above. The cells were suspended in HepatoZYME media (Gibco BRL), and the number of cells was counted. 1.5×10^4 cells in 100 μl were placed into the collagen-coated 96-well plate (BD biocoat), and adhered on the bottom for 3-4 h.
In order to assess the hepatocyte protective effect, above adhered cells were pretreated with the Example compounds for 30 min. At this time, the concentration of the Example compounds were serially diluted by 2-fold or 3-fold over 5 steps starting from 30 uM, 10 uM or 1 uM depending on the experiments, and the final concentration of DMSO was adjusted to 0.2%. 30 min after the treatment by compounds, cells were treated by the substances deriving hepatocyte death or hepatotoxic drugs at the concentrations indicated in Table 1. After 24-48 h, the viability of cells was determined to estimate the hepatocyte protective effects. The viability of cells was determined using WST-1 (MK-400, […]) method by the absorbance at 440 nm. Hepatocyte protective effects of the Example compounds were represented by “EC50” which was calculated from measured values. “EC50” herein means the concentration of the compound at which 50% of maximum protective effect is observed in the experiment.
A general note: Tetrazolium assays rely on reduction of a dye to a coloured formazan, in cell work by metabolically active cells.
Usually EC50 stands for the concentration that produces a half-maximal response. As to `CN(C)c1cccc(CC[C@H]2CSC(c3cc4cc(Cl)cc(NC5CCCC5)c4[nH]3)=N2)c1` [Example 177, (5-Chloro-2-{(S)-4-[2-(3-dimethylamino-phenyl)-ethyl]-4,5-dihydro-thiazol-2-yl}-1H-indol-7-yl)-cyclopentyl-amine], the EC50 was above 1 µM.

With `CC(=O)N1CCN(CC[C@H]2CSC(c3cc4cc(Cl)cc(NC5CCCC5)c4[nH]3)=N2)CC1` [Example 178, 1-(4-{2-[(S)-2-(7-cyclopentylamino-5-chloro-1H-indol-2-yl)-4,5-dihydro-thiazol-4-yl]-ethyl}-piperazin-1-yl)-ethanone], the EC50 stood at 0.23 µM.

Take `O=C1CN(CC[C@H]2CSC(c3cc4cccc(NC5CCOCC5)c4[nH]3)=N2)CCN1` [Example 182, (2-{(S)-4-[(2-oxopiperazin-4-yl)-ethyl]-4,5-dihydro-thiazol-2-yl}-1H-indol-7-yl)-(tetrahydro-pyran-4-yl)-amine]: the EC50 came out at 0.375 µM.

As to `Cc1cc(NC2CCOCC2)c2[nH]c(C3=N[C@@H](CCN4CCOCC4)CS3)cc2c1` [Example 184, (5-Methyl-2-{(S)-4-[(morpholin-4-yl)-ethyl]-4,5-dihydro-thiazol-2-yl}-1H-indol-7-yl)-(tetrahydro-pyran-4-yl)-amine], the EC50 amounted to 0.18 µM.

As for `Clc1cc(NC2CCOCC2)c2[nH]c(C3=N[C@H](CCN4CCNCC4)CS3)cc2c1` [Example 193, (5-Chloro-2-{(R)-4-[(piperazin-1-yl)-ethyl]-4,5-dihydro-thiazol-2-yl}-1H-indol-7-yl)-(tetrahydro-pyran-4-yl)-amine], the EC50 is 0.65 µM.

Take `Fc1cc(NC2CCCC2)c2[nH]c(C3=N[C@H](CCN4CCOCC4)CS3)cc2c1` [Example 201, (5-Fluoro-2-{(R)-4-[(morpholin-4-yl)-ethyl]-4,5-dihydro-thiazol-2-yl}-1H-indol-7-yl)-cyclopentyl-amine]: the EC50 was determined as 0.33 µM.

Take `O=C1CCCN1CC[C@@H]1CSC(c2cc3cc(F)cc(NC4CCCC4)c3[nH]2)=N1` [Example 205, (5-Fluoro-2-{(R)-4-[(2-oxopyrrolidin-1-yl)-ethyl]-4,5-dihydro-thiazol-2-yl}-1H-indol-7-yl)-cyclopentyl-amine]: the EC50 came to 0.34 µM.

Consider `Clc1cc(NC2CCCC2)c2[nH]c(C3=N[C@H](CCCN4CCOCC4)CS3)cc2c1` [Example 222, (5-Chloro-2-{(R)-4-[(morpholin-4-yl)-propyl]-4,5-dihydro-thiazol-2-yl}-1H-indol-7-yl)-cyclopentyl-amine], for which the EC50 was 0.18 µM.

With `CC(C)CN(CC(C)C)c1cc(Oc2ccccc2)cc2cc(C3=N[C@@H](CCN4CCCC4)CS3)[nH]c12` [Example 228, (5-Phenoxy-2-{(S)-4-[(pyrrolidin-1-yl)-ethyl]-4,5-dihydro-thiazol-2-yl}-1H-indol-7-yl)-diisobutyl-amine], the EC50 stood at 0.13 µM.

For the compound `c1ccc(Oc2cc(NC3CCCC3)c3[nH]c(C4=N[C@@H](CCN5CCNCC5)CS4)cc3c2)cc1` [Example 230, (5-Phenoxy-2-{(S)-4-[(piperazin-1-yl)-ethyl]-4,5-dihydro-thiazol-2-yl}-1H-indol-7-yl)-cyclopentyl-amine], the EC50 was above 0.32 µM.

Regarding `FCc1nnc2n1CCN(CC[C@H]1CSC(c3cc4cc(Oc5ccccc5)cc(NC5CCCC5)c4[nH]3)=N1)C2` [Example 232, Cyclopentyl-(5-phenoxy-2-{(S)-4-[2-(3-fluoromethyl-5,6-dihydro-8H-[1,2,4]triazolo[4,3-a]pyrazin-7-yl)-ethyl]-4,5-dihydro-thiazol-2-yl}-1H-indol-7-yl)-amine], the EC50 was determined as 0.24 µM.

For the compound `N[C@H]1CCN(CC[C@H]2CSC(c3cc4cc(Oc5ccccc5)cc(NC5CCCC5)c4[nH]3)=N2)C1` [Example 238, (5-Phenoxy-2-{(S)-4-[(3S)-3-(amino)pyrrolidin-1-yl-ethyl]-4,5-dihydro-thiazol-2-yl}-1H-indol-7-yl)-cyclopentyl-amine], the 50% effective concentration (EC50) stood at 0.33 µM.

Take `Cc1cc(NCC2CCOCC2)c2[nH]c(C3=N[C@@H](CCN4CCCC4C(N)=O)CS3)cc2c1` (stereo partly drawn) [Example 240, (5-Methyl-2-{(S)-4-[2-(aminocarbonyl)pyrrolidin-1-yl-ethyl]-4,5-dihydro-thiazol-2-yl}-1H-indol-7-yl)-(tetrahydropyran-4-yl)methyl-amine]: the EC50 is 0.28 µM.

For the compound `CC1SC(c2cc3cccc(NCC4CCOCC4)c3[nH]2)=N[C@H]1C(O)C1CCCN1` (stereo partly drawn) [Example 241, (5-Methyl-[(S)-2-(7-(tetrahydropyran-4-yl)methylamino-1H-indol-2-yl)-4,5-dihydro-thiazol-4-yl])-pyrrolidin-2-yl-methanol], the half-maximal effective concentration (EC50) was determined as 0.21 µM.

With `CCOP(=O)(CC[C@H]1CSC(c2cc3cc(C)cc(NCC4CCOCC4)c3[nH]2)=N1)OCC` [Example 244, (5-Methyl-2-{(S)-4-[2-diethoxyphosphoryl-ethyl]-4,5-dihydro-thiazol-2-yl}-1H-indol-7-yl)-(tetrahydropyran-4-yl)methyl-amine], the EC50 is 0.195 µM.

For the compound `c1ccc(Oc2cc(NC3CCCC3)c3[nH]c(C4=N[C@H](CCN5CCCC5)CS4)cc3c2)cc1` [Example 246, (5-Phenoxy-2-{(R)-4-[pyrrolidin-1-yl-ethyl]-4,5-dihydro-thiazol-2-yl}-1H-indol-7-yl)-cyclopentyl-amine], the EC50 turned out to be 0.35 µM.

With `c1ccc(Oc2cc(NCC3CCOCC3)c3[nH]c(C4=N[C@@H](CCN5CCOCC5)CS4)cc3c2)cc1` [Example 247, (5-Phenoxy-2-{(S)-4-[morpholin-4-yl-ethyl]-4,5-dihydro-thiazol-2-yl}-1H-indol-7-yl)-(tetrahydropyran-4-yl)methyl-amine], the EC50 is 0.86 µM.

Turning to `c1ccc(Oc2cc(NC3CCCC3)c3[nH]c(C4=N[C@@H](CCN5CCCC5)CS4)cc3c2)cc1` [Example 249, (5-Phenoxy-2-{(S)-4-[pyrrolidin-1-yl-ethyl]-4,5-dihydro-thiazol-2-yl}-1H-indol-7-yl)-cyclopentyl-amine], the EC50 was determined as 0.11 µM.

As for `Cc1cc(NC2CCC(F)(F)CC2)c2[nH]c(C3=N[C@@H](CCN4CCNC(=O)C4)CS3)cc2c1` [Example 250, (5-Methyl-2-{(S)-4-[2-oxopiperazin-4-yl-ethyl]-4,5-dihydro-thiazol-2-yl}-1H-indol-7-yl)-4,4-difluorocyclohexyl-amine], the EC50 was 0.09 µM.

As to `Cc1cc(NC2CCC(F)(F)CC2)c2[nH]c(C3=N[C@@H](CCN4CCOCC4)CS3)cc2c1` [Example 251, (5-Methyl-2-{(S)-4-[morpholin-4-yl-ethyl]-4,5-dihydro-thiazol-2-yl}-1H-indol-7-yl)-4,4-difluorocyclohexyl-amine], the EC50 stood at 0.3 µM.

As to `Cc1cc(NCC2CCOCC2)c2[nH]c(C3=N[C@@H](CCN4CCNC(=O)C4)CS3)cc2c1` [Example 253, (5-Methyl-2-{(S)-4-[2-oxopiperazin-4-yl-ethyl]-4,5-dihydro-thiazol-2-yl}-1H-indol-7-yl)-(tetrahydropyran-4-yl)methyl-amine], the EC50 was determined as 0.2 µM.

The same test, now with this note: primary rat hepatocytes pretreated with compound for 30 min, then doxorubicin; viability by WST-1 after 24-48 h.
Take `CS(=O)(=O)CC[C@@H]1CSC(c2cc3cccc(NC4CCOCC4)c3[nH]2)=N1` [Example 218]: the EC50 is 0.26 µM.

Regarding `O=C(CO)N1CCN(CC[C@H]2CSC(c3cc4cc(Oc5ccccc5)cc(NC5CCCC5)c4[nH]3)=N2)CC1` [Example 229], the EC50 stood at 0.25 µM.

In the case of `CC(C)(C)OC(=O)N1CCN(CC[C@H]2CSC(c3cc4cc(Oc5ccccc5)cc(NC5CCCC5)c4[nH]3)=N2)CC1` [Example 231, t-Butyl-(4-{2-[(S)-2-(5-phenoxy-7-cyclopentylamino)-1H-indol-2-yl)-4,5-dihydro-thiazol-4-yl]-ethyl}-piperazine-1-carboxylate], the half-maximal effective concentration (EC50) turned out to be 0.2 µM.

Consider `O=C1CN(CC[C@H]2CSC(c3cc4cc(Oc5ccccc5)cc(NC5CCCC5)c4[nH]3)=N2)CCN1` [Example 233], for which the EC50 is 0.27 µM.

`O=C(C1CCCO1)N1CCN(CC[C@H]2CSC(c3cc4cc(Oc5ccccc5)cc(NC5CCCC5)c4[nH]3)=N2)CC1` (some centres unmarked) [Example 234]: the EC50 was determined as 0.09 µM.

As to `c1ccc(Oc2cc(NC3CCCC3)c3[nH]c(C4=N[C@@H](CCN5CCN(c6ccccn6)CC5)CS4)cc3c2)cc1` [Example 235, (5-Phenoxy-2-{(S)-4-[(pyridin-2-yl)piperazine-ethyl]-4,5-dihydro-thiazol-2-yl}-1H-indol-7-yl)-cyclopentyl-amine], the EC50 is above 0.54 µM.

`Fc1ccccc1N1CCN(CC[C@H]2CSC(c3cc4cc(Oc5ccccc5)cc(NC5CCCC5)c4[nH]3)=N2)CC1` [Example 236, (5-Phenoxy-2-{(S)-4-[(2-fluorophenyl)piperazine-ethyl]-4,5-dihydro-thiazol-2-yl}-1H-indol-7-yl)-cyclopentyl-amine]: the EC50 is 0.16 µM.

On to `CC(=O)N1CCN(CC[C@H]2CSC(c3cc4cc(Oc5ccccc5)cc(NC5CCCC5)c4[nH]3)=N2)CC1` [Example 239], for which the EC50 was 0.83 µM.
